According to ChEMBL document CHEMBL1136474, “4-(4-alkylpiperazin-1-yl)phenyl group: a novel class of basic side chains for selective estrogen receptor modulators” (2003):

Target: T1, Estrogen receptor (Rattus norvegicus) (UniProt P06211+Q62986)
Conditions: Uterus
Description: Uterotrophic effect as uterine weight gain in rats at 1 mg/kg/day oral dose for 4 days

Uterotrophic effect	Compound
223	CCCN1CCN(c2ccc(C3=CC4(CCc5cc(O)ccc54)c4ccc(O)cc43)cc2)CC1 (stereo unspecified)
139	Oc1ccc2c(c1)CCC21C=C(c2ccc(N3CCCCC3)cc2)c2cc(O)ccc21 (stereo unspecified)
208	CCN1CCN(c2ccc(C3=CC4(CCc5cc(O)ccc54)c4ccc(O)cc43)cc2)CC1 (stereo unspecified)
114	CCC1CCCN(c2ccc(C3=CC4(CCc5cc(O)ccc54)c4ccc(O)cc43)cc2)CC1 (stereo unspecified)
185	CC(C)CN1CCN(c2ccc(C3=CC4(CCc5cc(O)ccc54)c4ccc(O)cc43)cc2)CC1 (stereo unspecified)

Target: T1, Estrogen receptor (Rattus norvegicus)
Assay: Uterotrophic effect as uterine weight gain in rats at 10 mg/kg/day oral dose for 4 days
Format: functional, organism-based
Conditions: Uterus

Increase	Compound
26.5%	Oc1ccc2c(c1)CCC21C=C(c2ccc(N3CCCCC3)cc2)c2cc(O)ccc21 (stereo unspecified)

System: Rattus norvegicus
Assay: Plasma cholesterol lowering effect was determined in Sprague-Dawley rats at a dose of 1 mg/kg/day for 4 days
Format: functional
Conditions: not given

Compound	Decrease
CCN(CC)CCOc1ccc(C2=CC3(CCc4cc(O)ccc43)c3ccc(O)cc32)cc1 (stereo unspecified)	18%
CCCN1CCN(c2ccc(C3=CC4(CCc5cc(O)ccc54)c4ccc(O)cc43)cc2)CC1 (stereo unspecified)	55%
Oc1ccc2c(c1)CCC21C=C(c2ccc(N3CCCCC3)cc2)c2cc(O)ccc21 (stereo unspecified)	51%
Cc1cc(C2=CC3(CCc4cc(O)ccc43)c3ccc(O)cc32)ccc1OCCN1CCCCC1 (stereo unspecified)	4.5%
CC1CCN(CCOc2ccc(C3=CC4(CCc5cc(O)ccc54)c4ccc(O)cc43)cc2)CC1 (stereo unspecified)	18%
CCN1CCN(c2ccc(C3=CC4(CCc5cc(O)ccc54)c4ccc(O)cc43)cc2)CC1 (stereo unspecified)	52%
CCC1CCCN(c2ccc(C3=CC4(CCc5cc(O)ccc54)c4ccc(O)cc43)cc2)CC1 (stereo unspecified)	32%
Oc1ccc2c(c1)CCC21C=C(c2ccc(CCCN3CCCCC3)cc2)c2cc(O)ccc21 (stereo unspecified)	6%
CC(C)N1CCN(c2ccc(C3=CC4(CCc5cc(O)ccc54)c4ccc(O)cc43)cc2)CC1 (stereo unspecified)	21%
Oc1ccc2c(c1)CCC21C=C(c2ccc(OCCN3CCCCC3)c(F)c2)c2cc(O)ccc21 (stereo unspecified)	16%
Oc1ccc2c(c1)CCC21C=C(c2ccc(OCCN3CCCCC3)cc2)c2cc(O)ccc21 (stereo unspecified)	44%
Cc1cc(OCCN2CCCCC2)ccc1C1=CC2(CCc3cc(O)ccc32)c2ccc(O)cc21 (stereo unspecified)	-12%
CN(C)CCOc1ccc(C2=CC3(CCc4cc(O)ccc43)c3ccc(O)cc32)cc1 (stereo unspecified)	6%
Oc1ccc2c(c1)CCC21C=C(c2ccc(OCCCN3CCCCC3)cc2)c2cc(O)ccc21 (stereo unspecified)	8.5%
Cc1cc(C2=CC3(CCc4cc(O)ccc43)c3ccc(O)cc32)cc(C)c1OCCN1CCCCC1 (stereo unspecified)	-9.1%
CC(C)CN1CCN(c2ccc(C3=CC4(CCc5cc(O)ccc54)c4ccc(O)cc43)cc2)CC1 (stereo unspecified)	87%
Oc1ccc2c(c1)CCC21C=C(c2ccc(OCCN3CCCC3)cc2)c2cc(O)ccc21 (stereo unspecified)	17%

Target: Estrogen receptor (Homo sapiens) (UniProt Q92731+P03372)
Assay: Binding affinity towards estrogen receptor (ER) using [3H]17-beta-estradiol as radioligand in human breast cancer MCF-7 cells relative to compound 1
Format: cell-based
Conditions: MCF7

relative binding affinity (RBA)	Compound
125	Oc1ccc2c(c1)CCC21C=C(c2ccc(N3CCCCC3)cc2)c2cc(O)ccc21 (stereo unspecified)
122	Cc1cc(C2=CC3(CCc4cc(O)ccc43)c3ccc(O)cc32)ccc1OCCN1CCCCC1 (stereo unspecified)
956	Oc1ccc2c(c1)CCC21C=C(c2ccc(CCCN3CCCCC3)cc2)c2cc(O)ccc21 (stereo unspecified)
247	Oc1ccc2c(c1)CCC21C=C(c2ccc(OCCN3CCCCC3)c(F)c2)c2cc(O)ccc21 (stereo unspecified)
70	Cc1cc(OCCN2CCCCC2)ccc1C1=CC2(CCc3cc(O)ccc32)c2ccc(O)cc21 (stereo unspecified)
47	Oc1ccc2c(c1)CCC21C=C(c2cccc(OCCN3CCCCC3)c2)c2cc(O)ccc21 (stereo unspecified)
460	Oc1ccc2c(c1)CCC21C=C(c2ccc(OCCCN3CCCCC3)cc2)c2cc(O)ccc21 (stereo unspecified)
22	Cc1cc(C2=CC3(CCc4cc(O)ccc43)c3ccc(O)cc32)cc(C)c1OCCN1CCCCC1 (stereo unspecified)
118	Oc1ccc2c(c1)CCC21C=C(c2ccc(OCCN3CCCC3)cc2)c2cc(O)ccc21 (stereo unspecified)

The next lines start with the compound.

Compound	relative binding affinity (RBA)
CCN(CC)CCOc1ccc(C2=CC3(CCc4cc(O)ccc43)c3ccc(O)cc32)cc1 (stereo unspecified)	153
CCCN1CCN(c2ccc(C3=CC4(CCc5cc(O)ccc54)c4ccc(O)cc43)cc2)CC1 (stereo unspecified)	186
CC1CCN(CCOc2ccc(C3=CC4(CCc5cc(O)ccc54)c4ccc(O)cc43)cc2)CC1 (stereo unspecified)	428
CCN1CCN(c2ccc(C3=CC4(CCc5cc(O)ccc54)c4ccc(O)cc43)cc2)CC1 (stereo unspecified)	181
CCC1CCCN(c2ccc(C3=CC4(CCc5cc(O)ccc54)c4ccc(O)cc43)cc2)CC1 (stereo unspecified)	387
CC(C)N1CCN(c2ccc(C3=CC4(CCc5cc(O)ccc54)c4ccc(O)cc43)cc2)CC1 (stereo unspecified)	103
CN1CCN(c2ccc(C3=CC4(CCc5cc(O)ccc54)c4ccc(O)cc43)cc2)CC1 (stereo unspecified)	207
CN(C)CCOc1ccc(C2=CC3(CCc4cc(O)ccc43)c3ccc(O)cc32)cc1 (stereo unspecified)	85
CC(C)CN1CCN(c2ccc(C3=CC4(CCc5cc(O)ccc54)c4ccc(O)cc43)cc2)CC1 (stereo unspecified)	42
